Reference: patent US11077090B2, “Compounds and compositions and uses thereof” (Sunovion Pharmaceuticals Inc., priority 2016, dated 2021)
Read-outs that look alike come from different tables or passages of the source.

Test system: compound-treated mice
Assay: Neuropharmacological assay (SmartCube): behavioral activity signature and minimal effective dose
Assay type: in vivo
Details: for minimal effective dose: Mus musculus, ip; for minimal effective dose / Potency: minimal effective dose (MED): MED = dose having 50% or more total activity; for AD: ADHD (probability of activity signature) / AG: analgesic (probability of activity signature) / AX: anxiolytic (probability of activity signature) / CE: cognitive enhancer (probability of activity signature) / DP: anti-depressant (probability of activity signature) / MS: mood stabilizer (probability of activity signature) / PS: anti-psychotic (probability of activity signature) / SD: sedative hypnotic (probability of activity signature) / UN: uncharacterized CNS activity (probability of activity signature): i.p. 15 min before test, most efficacious dose(s)
Method in brief: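 Video-recorded behavior is compared algorithmically against a reference-compound database, yielding class probabilities (best dose reported). Compounds given i.p. in NMP/PEG/propylene glycol 15 min pre-test at 3 doses; potency as MED, the dose (mpk, range usually 0.3–30) reaching ≥50% total activity.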

[1] = read-out: Potency: minimal effective dose (MED)
[2] = read-out: Potency: minimal effective dose (MED), binned

| SMILES | minimal effective dose [1] [mg/kg] | AD: ADHD (probability of activity signature) | AG: analgesic (probability of activity signature) | AX: anxiolytic (probability of activity signature) | CE: cognitive enhancer (probability of activity signature) | DP: anti-depressant (probability of activity signature) | MS: mood stabilizer (probability of activity signature) | PS: anti-psychotic (probability of activity signature) | SD: sedative hypnotic (probability of activity signature) | UN: uncharacterized CNS activity (probability of activity signature) | Potency: minimal effective dose (MED) (hydrochloride) | AX: anxiolytic (probability of activity signature) (hydrochloride) | CE: cognitive enhancer (probability of activity signature) (hydrochloride) | DP: anti-depressant (probability of activity signature) (hydrochloride) | PS: anti-psychotic (probability of activity signature) (hydrochloride) | SD: sedative hypnotic (probability of activity signature) (hydrochloride) | minimal effective dose [2] [mg/kg] | Potency: minimal effective dose (MED) |
| --- | --- | --- | --- | --- | --- | --- | --- | --- | --- | --- | --- | --- | --- | --- | --- | --- | --- | --- |
| COc1cccc2c1C(N)COC2.Cl (stereo not drawn) [Example 25] | 10 to 30 | + (LOQ ≤ + <5%) | ++ (5% ≤ ++ <25%) | ++ (5% ≤ ++ <25%) | ++ (5% ≤ ++ <25%) | ++ (5% ≤ ++ <25%) | + (LOQ ≤ + <5%) | ++ (5% ≤ ++ <25%) | + (LOQ ≤ + <5%) | +++ (25% ≤ +++ <50%) | – | – | – | – | – | – | – | – |
| Cc1ccc2c(c1)C(N)COCC2.Cl (stereo not drawn) [Example 31, 8-Methyl-1,2,4,5-tetrahydrobenzo[d]oxepin-1-amine hydrochloride] | – | + (LOQ ≤ + <5%) | ++ (5% ≤ ++ <25%) | – | – | – | + (LOQ ≤ + <5%) | – | – | +++ (25% ≤ +++ <50%) | C (>10 to ≤30 mpk) | ++ (5% ≤ ++ <25%) | + (LOQ ≤ + <5%) | ++ (5% ≤ ++ <25%) | + (LOQ ≤ + <5%) | + (LOQ ≤ + <5%) | – | – |
| CC[C@@H]1OCc2ccccc2[C@@H]1NC.Cl [Example 258] | – | + (LOQ ≤ + <5%) | + (LOQ ≤ + <5%) | + (LOQ ≤ + <5%) | + (LOQ ≤ + <5%) | ++ (5% ≤ ++ <25%) | ++ (5% ≤ ++ <25%) | + (LOQ ≤ + <5%) | ++ (5% ≤ ++ <25%) | + (LOQ ≤ + <5%) | – | – | – | – | – | – | 3 to 10 | – |
| C[C@@H]1OCc2cccc(Cl)c2[C@@H]1N.Cl [Example 80] | < 3 | + (LOQ ≤ + <5%) | ++ (5% ≤ ++ <25%) | +++ (25% ≤ +++ <50%) | + (LOQ ≤ + <5%) | + (LOQ ≤ + <5%) | + (LOQ ≤ + <5%) | ++ (5% ≤ ++ <25%) | ++ (5% ≤ ++ <25%) | +++ (25% ≤ +++ <50%) | – | – | – | – | – | – | – | – |
| CC[C@H]1OCc2ccc(C)cc2[C@H]1N (single isomer, unassigned) [Example 180] | – | + (LOQ ≤ + <5%) | ++ (5% ≤ ++ <25%) | ++ (5% ≤ ++ <25%) | ++ (5% ≤ ++ <25%) | ++ (5% ≤ ++ <25%) | + (LOQ ≤ + <5%) | ++ (5% ≤ ++ <25%) | + (LOQ ≤ + <5%) | ++++ (50% ≤ ++++) | – | – | – | – | – | – | 3 to 10 | – |
| CCNC1COCc2ccc(C)c(C)c21.Cl (stereo not drawn) [Example 58] | 3 to 10 | + (LOQ ≤ + <5%) | ++ (5% ≤ ++ <25%) | ++ (5% ≤ ++ <25%) | ++ (5% ≤ ++ <25%) | ++ (5% ≤ ++ <25%) | + (LOQ ≤ + <5%) | ++ (5% ≤ ++ <25%) | ++ (5% ≤ ++ <25%) | +++ (25% ≤ +++ <50%) | – | – | – | – | – | – | – | – |
| COc1ccc2c(c1)[C@@H](N)[C@H](C)OC2 (single isomer, unassigned) [Example 172] | – | + (LOQ ≤ + <5%) | ++ (5% ≤ ++ <25%) | ++ (5% ≤ ++ <25%) | + (LOQ ≤ + <5%) | + (LOQ ≤ + <5%) | + (LOQ ≤ + <5%) | ++ (5% ≤ ++ <25%) | + (LOQ ≤ + <5%) | +++ (25% ≤ +++ <50%) | – | – | – | – | – | – | 10 to 30 | – |
| CN[C@H]1COCc2ccc(C)cc21 [Example 142] | 3 to 10 | + (LOQ ≤ + <5%) | ++ (5% ≤ ++ <25%) | ++ (5% ≤ ++ <25%) | ++ (5% ≤ ++ <25%) | ++ (5% ≤ ++ <25%) | + (LOQ ≤ + <5%) | + (LOQ ≤ + <5%) | + (LOQ ≤ + <5%) | ++++ (50% ≤ ++++) | – | – | – | – | – | – | – | – |
| CCN(C)C(=O)Oc1ccc2c(c1)[C@H](N(C)C)[C@@H](C)OC2.Cl [Example 288] | – | + (LOQ ≤ + <5%) | + (LOQ ≤ + <5%) | + (LOQ ≤ + <5%) | + (LOQ ≤ + <5%) | ++ (5% ≤ ++ <25%) | + (LOQ ≤ + <5%) | + (LOQ ≤ + <5%) | ++ (5% ≤ ++ <25%) | + (LOQ ≤ + <5%) | – | – | – | – | – | – | > 30 | – |
| Cl.NC1COCCc2ccc3ccccc3c21 (stereo not drawn) [Example 32] | – | + (LOQ ≤ + <5%) | ++ (5% ≤ ++ <25%) | ++ (5% ≤ ++ <25%) | + (LOQ ≤ + <5%) | ++ (5% ≤ ++ <25%) | + (LOQ ≤ + <5%) | ++ (5% ≤ ++ <25%) | ++ (5% ≤ ++ <25%) | + (LOQ ≤ + <5%) | – | – | – | – | – | – | – | C (>10 to ≤30 mpk) |
| CCc1ccc2c(c1)[C@H](N)[C@@H](C)OC2.Cl [Example 220] | – | + (LOQ ≤ + <5%) | ++ (5% ≤ ++ <25%) | ++++ (50% ≤ ++++) | ++ (5% ≤ ++ <25%) | + (LOQ ≤ + <5%) | + (LOQ ≤ + <5%) | + (LOQ ≤ + <5%) | + (LOQ ≤ + <5%) | ++++ (50% ≤ ++++) | – | – | – | – | – | – | 3 to 10 | – |
| COc1cccc2c1CO[C@@H](C)[C@H]2N.Cl [Example 234] | – | + (LOQ ≤ + <5%) | ++ (5% ≤ ++ <25%) | +++ (25% ≤ +++ <50%) | ++ (5% ≤ ++ <25%) | + (LOQ ≤ + <5%) | + (LOQ ≤ + <5%) | ++ (5% ≤ ++ <25%) | ++ (5% ≤ ++ <25%) | ++ (5% ≤ ++ <25%) | – | – | – | – | – | – | 10 to 30 | – |
| Cc1ccc2c(c1C)[C@@H](N)COC2 [Example 136] | 3 to 10 | + (LOQ ≤ + <5%) | ++ (5% ≤ ++ <25%) | ++ (5% ≤ ++ <25%) | ++ (5% ≤ ++ <25%) | ++ (5% ≤ ++ <25%) | + (LOQ ≤ + <5%) | ++ (5% ≤ ++ <25%) | + (LOQ ≤ + <5%) | +++ (25% ≤ +++ <50%) | – | – | – | – | – | – | – | – |
| Cc1ccc2c(c1)CO[C@H](C)[C@H]2N.Cl [Example 96] | < 3 | + (LOQ ≤ + <5%) | ++ (5% ≤ ++ <25%) | +++ (25% ≤ +++ <50%) | ++ (5% ≤ ++ <25%) | ++ (5% ≤ ++ <25%) | + (LOQ ≤ + <5%) | ++ (5% ≤ ++ <25%) | + (LOQ ≤ + <5%) | +++ (25% ≤ +++ <50%) | – | – | – | – | – | – | – | – |
| Cl.NC1CCOCc2cccc(Cl)c21 (stereo not drawn) [Example 41] | 10 to 30 | + (LOQ ≤ + <5%) | ++ (5% ≤ ++ <25%) | ++ (5% ≤ ++ <25%) | ++ (5% ≤ ++ <25%) | ++ (5% ≤ ++ <25%) | + (LOQ ≤ + <5%) | + (LOQ ≤ + <5%) | + (LOQ ≤ + <5%) | +++ (25% ≤ +++ <50%) | – | – | – | – | – | – | – | – |
